Read-outs that look alike come from different tables or passages of the source.
Test system: hairy heel wart lesions on the cows
[1] = Day 0, prior to first treatment
[2] = Grading Period 1 (Day 0), one day prior to first treatment

`O=S(=O)([O-])[O-].[Cu+2]` [CuSO4, copper sulfate] was tested, and the “Lesion Appearance Score Distribution: number of cows with Grade Score 4 (Dead lesion)” value (shortened to “Lesion Appearance Score Distribution”) [1] was 1, the “Lesion Pain Score Distribution: number of cows with Grade Score 1 (Minor pain)” value (“Lesion Pain Score Distribution: number” below) [1] was 10 and the “Lesion Size Score Distribution: number of cows with Grade Score 1 (Dime Size)” value (“Lesion Size Score Distribution … (Dime Size)” below) [1] was 6. For the same molecule, the “Lesion Size Score Distribution: number of cows with Grade Score 2 (Quarter Size)” value (from here on “Lesion Size Score Distribution … (Quarter Size)”) [1] was 5, the “Locomotion Score Distribution: number of cows with Grade Score 1 (Stands and walks normal)” value (from here on “Locomotion Score Distribution: number”) [1] was 5 and the “Lesion Appearance Score Distribution” value (Day 5) was 5. For the same molecule, the “Lesion Pain Score Distribution: number” value (Day 5) was 6, the “Lesion Size Score Distribution … (Dime Size)” value (Day 5) was 4 and the “Lesion Size Score Distribution … (Quarter Size)” value (Day 5) was 4. The “Locomotion Score Distribution: number” value (Day 5) was 3, the “Lesion Appearance Score Distribution” value (Day 10) was 6 and the “Lesion Pain Score Distribution: number” value (Day 10) was 9. For the same molecule, the “Lesion Size Score Distribution … (Dime Size)” value (Day 10) was 10, the “Lesion Size Score Distribution … (Quarter Size)” value (Day 10) was 1 and the “Locomotion Score Distribution: number” value (Day 10) was 3. For the same molecule, the “Lesion Appearance Score Distribution” value (Day 14) was 5, the “Lesion Pain Score Distribution: number” value (Day 14) was 5 and the “Lesion Size Score Distribution … (Dime Size)” value (Day 14) was 4. The “Lesion Size Score Distribution … (Quarter Size)” value (Day 14) was 6, the “Locomotion Score Distribution: number” value (Day 14) was 8 and the “Lesion Appearance Score Distribution” value (Day 19) was 3. For the same molecule, the “Lesion Pain Score Distribution: number” value (Day 19) was 5, the “Lesion Size Score Distribution … (Dime Size)” value (Day 19) was 8 and the “Lesion Size Score Distribution … (Quarter Size)” value (Day 19) was 3. For the same molecule, the “Locomotion Score Distribution: number” value (Day 19) was 8, the “Average lesion color score (scale 0 to 5)” value (“Average lesion color score” below) [2] was 1.64 and the “Average lesion pain score (scale 0 to 2)” value [2] was 1.09. For the same molecule, the “Average locomotion score (scale 1-5)” value [2] was 1.82, the “Average lesion color score” value (Grading Period 2 (Day 5)) was 2.20 and the “Average lesion pain score (scale 0 to 2)” value (Grading Period 2 (Day 5)) was 0.60. For the same molecule, the “Average lesion size score (scale 0 to 3)” value (Grading Period 2 (Day 5)) was 1.80, the “Average locomotion score (scale 1-5)” value (Grading Period 2 (Day 5)) was 1.90 and the “Average lesion color score” value (Grading Period 3 (Day 10)) was 2.45. For the same molecule, the “Average lesion pain score (scale 0 to 2)” value (Grading Period 3 (Day 10)) was 1.00, the “Average lesion size score (scale 0 to 3)” value (Grading Period 3 (Day 10)) was 1.09 and the “Average locomotion score (scale 1-5)” value (Grading Period 3 (Day 10)) was 1.82. The “Average lesion color score” value (Grading Period 4 (Day 14)) was 3.10, the “Average lesion pain score (scale 0 to 2)” value (Grading Period 4 (Day 14)) was 0.50 and the “Average lesion size score (scale 0 to 3)” value (Grading Period 4 (Day 14)) was 1.60. For the same molecule, the “Average locomotion score (scale 1-5)” value (Grading Period 4 (Day 14)) was 1.20, the “Average lesion pain score (scale 0 to 2)” value (Grading Period 5 (Day 19)) was 0.45 and the “Average lesion size score (scale 0 to 3)” value (Grading Period 5 (Day 19)) was 1.27. For the same molecule, the “Average locomotion score (scale 1-5)” value (Grading Period 5 (Day 19)) was 1.55.
